Experimental data as given in patent publication US20170129911A1, “COMPLEXES COMPRISING A PLATINUM COMPOUND AND AN IMMUNE CHECKPOINT INHIBITOR AND RELATED METHODS” (Massachusetts Institute of Technology, priority 2015, published 2017).
Entries after “also recorded” stand apart in the source; their conditions may differ.

How the values were obtained:
Solubility in PBS = type: physicochemical
[1] = Water-octanol partition coefficient (Log P), shake-flask method and GFAAS; details: octanol/PBS
SKOV3 cells [2] = test: Subcellular distribution of platinum (GFAAS); type: cell-based, human; details: SKOV3, 5 μM, 17 h
Description: To gain further insight into the mode of action was studied of 1 and 2, the subcellular distribution of platinum. SKOV3 cells were incubated with the drug candidates (5 μM) for 17 h, using cisplatin as a control. The platinum content was measured by using GFAAS.
To measure cellular uptake, ca. 20 million SKOV3 cells were treated with 5 μM compounds 1, 2 and cisplatin at 37° C. for 17 h. The media were removed, and the cells were washed with PBS solution (1 mL×3), harvested, and centrifuged. The cell pellet was suspended in an appropriate volume of PBS to obtain a homogeneous suspension (100 μL). The nuclear and cytoplasmic extraction kit (NE-PER, Thermo Scientific Inc.) was used to extract the separate cytoplasmic, nuclear, and pelleted fractions. The fractions were mineralized with 70% HNO3 and then heated at 95° C. for 10 min. The platinum content was analyzed by GF-AAS. Cellular platinum levels were expressed as pmol of Pt per million cells. Results are presented as the mean of three determinations for each data point.

[3] = test system: A2780/CP70 human ovarian cancer cells; test: Cytotoxicity MTT assay, A2780/CP70; type: cell-based; details: cisplatin-sensitive and resistant ovarian cancer cell lines
Description: Ovarian carcinoma cells, NIH:OVCAR3, A2780, A2780/CP70, and SKOV3 were purchased from the American Type Culture Collection (ATCC, Rockville Md.). Peripheral blood mononuclear cells (PBMCs) of two different donors were obtained from Zen Bio Inc. (Research Triangle, NC). Cancer cell lines were maintained in Roswell Park Memorial Institute (RPMI) medium (glutamine-free supplemented with 10% fetal bovine serum, Atlanta Biologics, Atlanta Ga.) and 1% penicillin/streptomycin. PBMCs were thawed in specialized medium (10% […], 40% RPMI and 50% FBS) and subsequently cultured in RPMI containing 20% FBS. For T-cell proliferation experiments, PBMCs were stimulated by the addition of phytohemagglutinin (PHA-P). All cells were grown at 310 K in a humidified atmosphere containing 5% CO2. D-1-methyltryptophan, L-tryptophan and L-kynurenine were purchased from Sigma Aldrich.
The colorimetric MTT assay was used to determine the toxicity of 1, 2, and cisplatin. Cells (2×10^3) were seeded in each well of a 96-well plate. […] Cisplatin was prepared as a 5 mM solution in PBS and diluted using media. 1, 2 and C16—Pt-Suc-NHC2H4OH were prepared as 10 mM solution in DMSO and diluted using media. The final volume amount of DMSO in each well was 0.5%, and which was present in the untreated control as well. Cells co-incubated with cisplatin and (D)-1-MT were first pre-treated with 1 mM (D)-1-MT. […] The RPMI/MTT, mixture was aspirated and 100 μL of DMSO was added to dissolve the resulting purple formazan crystals. The absorbance of the solution wells was read at 570 and 650 nm. Absorbance values were normalized to DMSO-containing control wells and plotted as concentration of test compound versus % cell viability. IC50 values were interpolated from the resulting dose dependent curves. The reported IC50 values are the average of at least three independent experiments, each of which consisted of six replicates per concentration level.

SKOV3 cells [4] = test: Annexin V/sytox green apoptosis dead cell assay; type: cell-based, human; details: 72 h of treatment
Description: Therapeutic nanoparticles (NPs) have been widely investigated for their potential to enhance cancer treatment. The chemical structure of 2 bears both hydrophilic (1-D-MT) and hydrophobic (hexadecyl isocyanate) axial ligands, conferring amphiphilic character to the molecule. In some cases, the hexadecyl isocyanate axial ligand facilitate non-covalent binding to human serum albumin, protecting the Pt(IV) center from premature reduction in blood. In the presence of the biodegradable block copolymer, poly(lactic-co-glycolic acid)-polyethylene glycol (PLGA-PEG), 2 readily self-assembles into NPs suitable for preclinical studies (FIG. 5A). […] Having obtained the nanoparticles, the ability of 2 and its NP to induce apoptosis was investigated. Translocation of phosphatidylserine residues to the exterior is a characteristic of apoptotic cells, which have a compromised cell membrane, and can be detected by annexin V. Using a dual staining annexin V/sytox green apoptosis dead cell assay, we examined the apoptotic behavior of SKOV3 cells after 72 h of treatment with 2 and its NP by flow cytometry.

[5] = Tolerability/toxicity in mice; type: in vivo
human IDO in SKOV3 cells = test: Immunoblotting and qRT-PCR of IDO expression in SKOV3 cells; type: cell-based; details: immunoblotting and qRT-PCR
Description: Total RNA was isolated with the Qiagen RNAeasy RNA isolation kit (Hilden, Germany) and cDNA was synthesized with the Applied Biosystems reverse-transcription-kit (Foster City, Calif., USA). qRT-PCR was performed in a Light cycler 480 II thermo cycler with SYBR Green PCR Mastermix (Roche). All primers were separated by at least one intron on the genomic DNA to exclude its amplification. PCR reactions were checked by including no-RT controls, by omission of templates, and by melting curves. Standard curves were generated for each gene. Relative quantification of gene expression was determined by comparison of threshold values. All samples were analyzed in duplicate at two different dilutions. All results were normalized to GAPDH.
Cells were washed with PBS, scraped into SDS-PAGE loading buffer (64 mM Tris-HCl (pH 6.8)/9.6% glycerol/2% SDS/5% β-mercaptoethanol/0.01% Bromophenol Blue), and incubated at 95° C. for 10 min. […] Membranes were blocked in 5% (w/v) bovine serum albumin in PBST (PBS/0.1% Tween 20) and incubated with the appropriate primary antibodies (Cell Signalling Technology and Santa Cruz). After incubation with horseradish peroxidase-conjugated secondary antibodies (Cell Signalling Technology), 1:1000, immuno complexes were detected with the ECL detection reagent (BioRad) and analyzed using UVP biospectrum imaging system fitted with a chemiluminescence filter.

[6] = Whole human blood stability test; type: in vitro ADME
Description: To a volume of 0.8 mL fresh whole human blood (Innovative Research, Novi, Mich.) was added 24 μL of a DMSO solution of 2 (2.0 mM), resulting in a final concentration of 60 μM. After 5 sec of vortexing, a 100 μL aliquot of the blood sample (0 h time point) was immediately transferred to a new tube containing 300 μL of octanol, and the remaining […] of blood was incubated at 37° C. with rotation (1100 rpm). The blood-octanol mixture was vortexed for 2 min at R.T. and then centrifuged to separate the phases. The isolated octanol extract was diluted with methanol for GFAAS measurement. At varying time points (1 h, 2 h, 3 h, 5 h, and 7 h), a 100 μL aliquot was removed from the incubating blood and extracted as described above. For the 7 h sample, analytical HPLC was employed to confirm the integrity of the Pt compound. A standard of 2 and an octanol extract from blank whole human blood were used for comparison.

For `CCCCCCCCCCCCCCCCNC(=O)[O][Pt]([NH2])([NH2])([Cl])([Cl])[O]C(=O)CCC(=O)NCCOC(=O)[C@H](N)Cc1cn(C)c2ccccc12` (mixture of isomers) [Compound 2, cis,cis,trans-[Pt(NH3)2Cl2(O2CC2H4OCNHC2H4O2C-D-1MT)(O2CNHC16H33)]], the “solubility in PBS” value (Solubility in PBS) was “low solubility”, the logP at 3 h [1] was 1.35 ± 0.26 and the “platinum content within the nucleus” value (SKOV3 cells [2]) was “comparable to that of cisplatin”. For the same compound, the cross-resistance with cisplatin [3] was “no cross-resistance with cisplatin”, the induction of apoptosis (SKOV3 cells [4]) was “induced large populations of SKOV3 cells to undergo apoptosis” and the “toxicity / tolerance in mice” value [5] was “low toxicity in mice; also recorded: mice are tolerant”. The “IDO protein expression (IDO inhibition)” value (human IDO in SKOV3 cells) was “effectively block IDO protein expression”, the half-life at 60 µM ([6]; fresh whole human blood, whole human blood, 60 μM, 37° C., read-out: t1/2 in human blood (converted)) was 2.2 h and the stability in blood ([6]; summary statement) was “stable in blood”.
